Where two headings read alike, the source gives them in different places.
Tests used:
normal Vero cell line = system: normal Vero cell line; parameters: method as in doi:10.1007/s00044-017-1843-8; settings: cited from earlier work
α-glucosidase = biological target: α-glucosidase; parameters: method as in doi:10.1016/S0031-9422(99)00314-3; settings: cited from earlier work
MCF7 cell line = settings: cited from earlier work
Hep G2 cell line = system: Hep G2 cell line; parameters: method as in PMID 29116937, doi:10.1016/j.phytol.2019.05.003; settings: read-out: Cytotoxicity IC50, Hep G2 (previous research); cited from earlier work
KB cell line = system: KB cell line; parameters: method as in doi:10.1016/j.phytol.2012.09.007; settings: read-out: Cytotoxicity IC50, KB (previous research); cited from earlier work
[1] = MTT cytotoxicity assay, KB; assay type: cell-based; settings: human, means ± SD of three replicates
Experimental: (§1) The cancer cells were cultured in Dulbecco’s Modified Eagle’s Medium with 10% Fetal Bovine Serum, 1% penicillin and streptomycin, and 1% L-glutamine at 37 °C in a 5% CO2 environment. The tested compounds were added at concentrations ranging from 0.5 to 128 μg/mL by dissolving in DMSO (20 mg/mL) and incubated for a further 72 h in the identical condition. After the treatment, each well was filled with an MTT solution (10 μL, 5 mg/mL) of phosphate buffer, which was left to stand for 4 h until intracellular purple formazan crystals appeared. The MTT was removed and a 100 μL DMSO solution was added. The blank contained only a medium without any cells and MTT, as well as the solubilizing solution. The solution’s optical density (OD) at 540 nm was recorded on a BIOTEK reader. All experiments were carried out in triplicate for three independent experiments. IC50 values were computed graphically using inhibition curves.

[2] = MTT cytotoxicity assay, MCF7; assay type: cell-based; settings: human, means ± SD of three replicates
Experimental: as §1

[3] = MTT cytotoxicity assay, Hep G2; assay type: cell-based; settings: human, means ± SD of three replicates
Experimental: as §1

[4] = read-out: Cytotoxicity IC50, MCF7 (previous research)
[5] = MCF-7 cells (human breast adenocarcinoma)

Compound: O=c1cc(-c2ccccc2)oc2cc(O)cc(O)c12 [Compound 5, chrysin]
- Cytotoxicity against normal Vero cell line (normal Vero cell line): no cytotoxicity
- IC50 (α-glucosidase; read-out: α-Glucosidase inhibition IC50 (previous research)): 5.7 µM
- IC50 (MCF7 cell line; [4]): 37.2 µM
- IC50 (Hep G2 cell line): 50.6 µM

Compound: COc1cc(O)c2c(=O)cc(-c3ccccc3)oc2c1 [Compound 4, tectochrysin]
- α-Glucosidase inhibition (previous research, in words) (α-glucosidase): no α-glucosidase inhibition
- IC50 (MCF7 cell line; [4]): 16.7 µM
- IC50 (KB cell line): 55.3 µM

Compound: COc1cc2c(c(O)c1OC)C(=O)C[C@@H](c1ccccc1)O2 [Compound 6, onysilin]
- IC50 at 72 h [1]: > 100 µM
- IC50 at 72 h [2]: > 100 µM
- IC50 at 72 h [3]: > 100 µM

Compound: CC(C)=CCc1cc2c(c(O)c1O)C(=O)C[C@@H](c1ccccc1)O2 [Compound 3, melodorone C]
- IC50 at 72 h [2, 5]: > 100 µM

Compound: O=C1C[C@@H](c2ccccc2)Oc2cc(O)cc(O)c21 [Compound 7, pinocembrin]
- Cytotoxicity against normal Vero cell line (normal Vero cell line): no cytotoxicity
- α-Glucosidase inhibition (previous research, in words) (α-glucosidase): no α-glucosidase inhibition
- IC50 (MCF7 cell line; 48 h, read-out: Cytotoxicity IC50, MCF7, 48 h): 226 µM
- IC50 (MCF7 cell line; 72 h, read-out: Cytotoxicity IC50, MCF7, 72 h): 108 µM
- IC50 at 72 h ([1]; KB cells (human epidermoid carcinoma)): > 100 µM
- IC50 at 72 h [2, 5]: > 100 µM
- IC50 at 72 h ([3]; Hep G2 cells (human hepatocellular carcinoma)): > 100 µM
